Values after ≈ are worked out from the molar mass of the structure shown. Read-outs that look alike come from different tables or passages of the source.
Tests used:
[1] = tested on: super sensitive Gram-negative Escherichia coli (E. coli) BAS849; test: Antibacterial activity, microbroth dilution MIC, E. coli BAS849; assay type: cell-based; conditions: Escherichia coli, read-out: MIC, BAS849
[2] = tested on: control Gram-negative E. coli 25922 strain; test: Antibacterial activity, microbroth dilution MIC, E. coli 25922; assay type: cell-based, Escherichia coli; conditions: Escherichia coli; E. coli 25922, microbroth dilution; read-out: MIC, 25922
[3] = tested on: Gram-positive Staphylococcus aureus (S. aureus) 29213; test: Antibacterial activity, microbroth dilution MIC, S. aureus 29213; assay type: cell-based; conditions: Staphylococcus aureus; S. aureus 29213, microbroth dilution; read-out: MIC, 29213
[4] = E. coli BAS849, microbroth dilution

Row | SMILES | MIC [1, 4] [µg/mL] | MIC [2] [µg/mL] | MIC [3] [µg/mL] | MIC [1] [µg/mL]
1 | CCc1cc(C(=O)O)c(=O)[nH]c1-c1ccc(Br)cc1 [Cpd 78, 6-(4-bromophenyl)-5-ethyl-2-oxo-1,2-dihydropyridine-3-carboxylic acid] | 3.5 to 12.5 (≈ 10.9 to 38.8 µM) | 12.5 to 150 (≈ 38.8 to 466 µM) | 12.5 to 150 (≈ 38.8 to 466 µM) | –
2 | CCc1c(-c2ccc(F)cc2)[nH]c(=O)c(C(=O)O)c1O [Cpd 74, 5-ethyl-6-(4-fluorophenyl)-4-hydroxy-2-oxo-1,2-dihydropyridine-3-carboxylic acid] | 3.5 to 12.5 (≈ 12.6 to 45.1 µM) | 12.5 to 150 (≈ 45.1 to 541 µM) | 12.5 to 150 (≈ 45.1 to 541 µM) | –
3 | O=C(O)c1cc(C(=O)O)c(=O)[nH]c1-c1ccc(F)cc1 [Cpd 10, 6-(4-fluorophenyl)-2-oxo-1,2-dihydropyridine-3,5-dicarboxylic acid] | 12.5 to 150 (≈ 45.1 to 541 µM) | 12.5 to 150 (≈ 45.1 to 541 µM) | 12.5 to 150 (≈ 45.1 to 541 µM) | –
4 | CCc1cc(C(=O)O)c(=O)[nH]c1-c1ccc(N2CCCCC2)cc1OC [Cpd 59, 5-ethyl-6-[2-methoxy-4-(piperidin-1-yl)phenyl]-2-oxo-1,2-dihydropyridine-3-carboxylic acid] | 12.5 to 150 (≈ 35.1 to 421 µM) | 12.5 to 150 (≈ 35.1 to 421 µM) | 12.5 to 150 (≈ 35.1 to 421 µM) | –
5 | CCc1c(-c2ccc(N(C)C)cc2OC)[nH]c(=O)c(C(=O)O)c1O [Cpd 61, 6-[4-(dimethylamino)-2-methoxyphenyl]-5-ethyl-4-hydroxy-2-oxo-1,2-dihydropyridine-3-carboxylic acid] | 3.5 to 12.5 (≈ 10.5 to 37.6 µM) | 12.5 to 150 (≈ 37.6 to 451 µM) | 3.5 to 12.5 (≈ 10.5 to 37.6 µM) | –
6 | CCc1c(-c2cnn(C)c2)[nH]c(=O)c(C(=O)O)c1O [Cpd 347, 5-ethyl-4-hydroxy-6-(1-methyl-1H-pyrazol-4-yl)-2-oxo-1,2-dihydropyridine-3-carboxylic acid] | 1 to 3.5 (≈ 3.8 to 13.3 µM) | 3.5 to 12.5 (≈ 13.3 to 47.5 µM) | 12.5 to 150 (≈ 47.5 to 570 µM) | –
7 | CCc1cc(C(=O)O)c(=O)[nH]c1-c1ccc(N2CCC(CN(Cc3ccccc3)Cc3ccccc3)C2)cc1.O=C(O)C(F)(F)F (stereo not drawn) [Cpd 181, 6-(4-{3-[(dibenzylamino)methyl]pyrrolidin-1-yl}phenyl)-5-ethyl-2-oxo-1,2-dihydropyridine-3-carboxylic acid trifluoroacetate] | – | 12.5 to 150 | 12.5 to 150 | 3.5 to 12.5
8 | CCc1c(-c2ccc(N3CCCCC3)s2)[nH]c(=O)c(C(=O)O)c1O [Cpd 309, 5-ethyl-4-hydroxy-2-oxo-6-[5-(piperidin-1-yl)thiophen-2-yl]-1,2-dihydropyridine-3-carboxylic acid] | < 1 | 12.5 to 150 (≈ 35.9 to 431 µM) | 3.5 to 12.5 (≈ 10 to 35.9 µM) | –
9 | CCc1cc(C(=O)O)c(=O)[nH]c1-c1ccc(-c2nnn[nH]2)cc1 [Cpd 23, 5-ethyl-2-oxo-6-[4-(1H-tetrazol-5-yl)phenyl]-1,2-dihydropyridine-3-carboxylic acid] | 12.5 to 150 (≈ 40.2 to 482 µM) | 12.5 to 150 (≈ 40.2 to 482 µM) | 12.5 to 150 (≈ 40.2 to 482 µM) | –
10 | CCc1cc(C(=O)O)c(=O)[nH]c1-c1ccc(N(C)C)s1 [Cpd 305, 6-[5-(dimethylamino)thiophen-2-yl]-5-ethyl-2-oxo-1,2-dihydropyridine-3-carboxylic acid] | < 1 | 12.5 to 150 (≈ 42.8 to 513 µM) | 12.5 to 150 (≈ 42.8 to 513 µM) | –
11 | CCc1cc(C(=O)O)c(=O)[nH]c1-c1ccc(Cl)cc1 [Cpd 76, 6-(4-chlorophenyl)-5-ethyl-2-oxo-1,2-dihydropyridine-3-carboxylic acid] | 12.5 to 150 (≈ 45 to 540 µM) | 12.5 to 150 (≈ 45 to 540 µM) | 12.5 to 150 (≈ 45 to 540 µM) | –
12 | CCc1c(-c2ccc(N(C)C)c(C)c2)[nH]c(=O)c(C(=O)O)c1O [Cpd 63, 6-[4-(dimethylamino)-3-methylphenyl]-5-ethyl-4-hydroxy-2-oxo-1,2-dihydropyridine-3-carboxylic acid] | 1 to 3.5 (≈ 3.16 to 11.1 µM) | 12.5 to 150 (≈ 39.5 to 474 µM) | 3.5 to 12.5 (≈ 11.1 to 39.5 µM) | –
13 | CCc1cc(C(=O)O)c(=O)[nH]c1-c1ccc(N2CCCCC2)c(C)c1 [Cpd 72, 5-ethyl-6-[3-methyl-4-(piperidin-1-yl)phenyl]-2-oxo-1,2-dihydropyridine-3-carboxylic acid] | 3.5 to 12.5 (≈ 10.3 to 36.7 µM) | 12.5 to 150 (≈ 36.7 to 441 µM) | 12.5 to 150 (≈ 36.7 to 441 µM) | –
14 | CCc1c(-c2ccc(N3CCC[C@@H](O)C3)cc2)[nH]c(=O)c(C(=O)O)c1O [Cpd 125, 5-ethyl-4-hydroxy-6-{4-[(3R)-3-hydroxypiperidin-1-yl]phenyl}-2-oxo-1,2-dihydropyridine-3-carboxylic acid] | < 1 | 3.5 to 12.5 (≈ 9.77 to 34.9 µM) | 12.5 to 150 (≈ 34.9 to 419 µM) | –
15 | CCc1cc(C(=O)O)c(=O)[nH]c1-c1ccc(N2CC3(CCCCC3)CC2=O)cc1 [Cpd 118, 5-ethyl-2-oxo-6-[4-(3-oxo-2-azaspiro[4.5]dec-2-yl)phenyl]-1,2-dihydropyridine-3-carboxylic acid] | 3.5 to 12.5 (≈ 8.87 to 31.7 µM) | 12.5 to 150 (≈ 31.7 to 380 µM) | 12.5 to 150 (≈ 31.7 to 380 µM) | –

Source: US9650395B2, “Antibacterial compounds and methods for use” (PTC Therapeutics, Inc., priority 2011, dated 2017)
